Source: ChEMBL document CHEMBL1795302, “Synthesis and discovery of novel hexacyclic cage compounds as inhibitors of acetylcholinesterase” (Bioorg Med Chem Lett, 2011)

Target: Acetylcholinesterase (Electrophorus electricus, UniProt O42275)
Assay: Inhibition of electric eel AChE by modified Ellman method

Sequence of Acetylcholinesterase (O42275 whole entry): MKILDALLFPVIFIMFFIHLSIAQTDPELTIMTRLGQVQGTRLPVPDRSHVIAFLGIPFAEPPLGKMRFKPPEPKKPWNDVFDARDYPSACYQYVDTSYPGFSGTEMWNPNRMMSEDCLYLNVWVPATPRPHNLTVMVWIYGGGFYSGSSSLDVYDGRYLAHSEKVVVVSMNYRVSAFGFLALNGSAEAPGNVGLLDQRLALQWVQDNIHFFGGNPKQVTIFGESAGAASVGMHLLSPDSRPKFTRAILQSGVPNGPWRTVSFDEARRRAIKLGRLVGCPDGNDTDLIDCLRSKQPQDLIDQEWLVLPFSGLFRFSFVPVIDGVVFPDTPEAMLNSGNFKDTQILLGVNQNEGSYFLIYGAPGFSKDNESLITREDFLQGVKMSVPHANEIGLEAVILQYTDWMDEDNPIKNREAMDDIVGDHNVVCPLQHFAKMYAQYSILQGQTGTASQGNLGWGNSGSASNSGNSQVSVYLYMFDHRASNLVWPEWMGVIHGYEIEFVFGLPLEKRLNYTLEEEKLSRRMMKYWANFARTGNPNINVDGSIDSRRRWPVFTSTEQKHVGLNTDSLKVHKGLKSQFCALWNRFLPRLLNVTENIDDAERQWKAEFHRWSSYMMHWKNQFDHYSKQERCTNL

Molecule O=C1/C(=C/c2ccccc2Cl)CN2CC13[C@@H](c1ccccc1Cl)C1CCCN1C31C(=O)c3ccccc3C21O (stereo not given in full) has an IC50 of 5.12 µM.

In the case of O=C1/C(=C/c2ccc(F)cc2)CN2CC13[C@@H](c1ccc(F)cc1)C1CCCN1C31C(=O)c3ccccc3C21O (stereo not given in full), the IC50 is reported as 11.3 µM.

Work on Cc1ccc(/C=C2\CN3CC4(C2=O)[C@@H](c2ccc(C)cc2)C2CCCN2C42C(=O)c4ccccc4C32O)cc1 (stereo not given in full) yielded an IC50 of 0.72 µM.

With O=C1/C(=C/c2cccc3ccccc23)CN2CC13[C@@H](c1cccc4ccccc14)C1CCCN1C31C(=O)c3ccccc3C21O (stereo not given in full) the IC50 was 2.12 µM.

Molecule O=C1/C(=C/c2cccc([N+](=O)[O-])c2)CN2CC13[C@@H](c1cccc([N+](=O)[O-])c1)C1CCCN1C31C(=O)c3ccccc3C21O (stereo not given in full) has an IC50 of 6.2 µM.

O=C1/C(=C/c2ccc(Cl)cc2Cl)CN2CC13[C@@H](c1ccc(Cl)cc1Cl)C1CCCN1C31C(=O)c3ccccc3C21O (stereo not given in full) showed an IC50 of 12.2 µM.

Work on O=C1/C(=C/c2ccc(Br)cc2)CN2CC13[C@@H](c1ccc(Br)cc1)C1CCCN1C31C(=O)c3ccccc3C21O (stereo not given in full) yielded an IC50 of 9.26 µM.

For Cc1ccccc1/C=C1\CN2CC3(C1=O)[C@@H](c1ccccc1C)C1CCCN1C31C(=O)c3ccccc3C21O (stereo not given in full), the IC50 was 1.2 µM.

Work on O=C1/C(=C/c2ccc(Cl)cc2)CN2CC13[C@@H](c1ccc(Cl)cc1)C1CCCN1C31C(=O)c3ccccc3C21O (stereo not given in full) yielded an IC50 of 11.2 µM.

In the case of O=C1/C(=C/c2ccccc2)CN2CC13[C@@H](c1ccccc1)C1CCCN1C31C(=O)c3ccccc3C21O (stereo not given in full), the IC50 is reported as 6.86 µM.
